Patent US3976545A, “1,2,4-Triazol E-3-carboxamides as antiviral agents” (ICN Pharmaceuticals, Inc., priority 1975, dated 1976)
Like-named read-outs stand apart in the source and are kept apart here.

Key:
Nucleoside Phosphorylase = target: T1, Nucleoside Phosphorylase (Bos taurus, UniProt P55859); test: Nucleoside Phosphorylase assay (conversion of 1,2,4-triazole-3-carboxamide to its 1-β-D-ribofuranosyl nucleoside); format: biochemical, calf (spleen); details: pH 7.4, 25°, 5 minutes
T1 construct: purchased Sigma Chemical Co., St. Louis, Mo; host or cells: calf spleen
T1 sequence (P55859 1-289): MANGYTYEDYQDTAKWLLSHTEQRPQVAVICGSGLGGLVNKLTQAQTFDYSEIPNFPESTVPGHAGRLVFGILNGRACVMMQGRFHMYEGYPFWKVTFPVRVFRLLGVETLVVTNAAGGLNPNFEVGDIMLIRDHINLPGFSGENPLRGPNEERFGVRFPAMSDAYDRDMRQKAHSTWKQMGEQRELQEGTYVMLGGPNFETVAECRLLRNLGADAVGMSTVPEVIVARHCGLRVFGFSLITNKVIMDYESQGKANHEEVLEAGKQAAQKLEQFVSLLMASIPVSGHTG
Experimental: 1,2,4-Triazole-3-carboxamide may be converted to 1-β-D-ribofuranosyl- 1,2,4-triazole-3-carboxamide by reaction with the enzyme Nucleoside Phosphorylase at a pH within the range of about 5 to about 9, preferably 7 to 8, at an enzyme concentration of from about 0.015 to about 0.75 mg/ml, preferably about 0.15 mg/ml, and a temperature within the range of about 0° to about 50°C, with the preferred temperature being approximately 25° to about 35°C. Satisfactory results have been obtained when the triazole base is present in a concentration greater than 5×10^^-5 M and ribose-1-phosphate is present at a concentration greater than 2×10^^-5 M. Generally about 0.1 to about 2 hours, preferably about 0.5 to about 1 hour, are required for the reaction. The source of the enzyme may be animal, tissue, or bacteria. The principal bacterial sources are E. coli and […], while a variety of animal sources exist, including beef spleen, rat liver, calf liver, calf thymus, beef liver, monkey brain, horse liver, calf spleen, human erythrocytes, fish skin, and fish muscle. […]
The samples were incubated at 25° for 5 minutes and then frozen in dry ice - isopropanol to stop the reaction. […] Areas of the chromatograms coinciding with 1,2,4-triazole-3-carboxamide were removed and counted to determine the percent of conversion of 1,2,4 -triazole-3-carboxamide to 1-β-D-ribofuranosyl-1,2,4-triazole-3-carboxamide.

Type 1 Herpes = test: CPE inhibition in KB cells, Type 1 Herpes; format: cell-based; details: VR >0.5 significant, <0.5 slight activity
Experimental: (§1) They were tested for activity using the virus-induced cytopathogenic effect (CPE) method of Sidwell, et al., (Applied Microbiology 22:797-801, 1971). Briefly, the CPE procedure includes the dissolution of the antiviral agent in a cell culture medium consisting of vitamins, amino acids, serum, buffer, penicillin, streptomycin and indicator dye in water. The virus suspended in the cell culture medium was added to an established monolayer of KB cells, and an equal volume of the antiviral agent was then added within 15 minutes. The infected treated cells were graded following microscopic examination. Controls for each experiment include cell controls (cells and cell culture medium only), virus controls (cells and virus and cell culture medium) and toxicity controls (cells and chemical and cell culture medium).
(§2) The virus rating (VR) system of Sidwell et al, described in Applied Microbiology, supra, was used to evaluate the degree of significance of CPE inhibition.

Type 2 Herpes = test: CPE inhibition in KB cells, Type 2 Herpes; format: cell-based; details: VR >0.5 significant, <0.5 slight activity
Experimental: as §1, §2

Vaccinia = format: cell-based; details: KB cells, VR >0.5 significant, <0.5 slight activity
Type 1A Rhino = test: CPE inhibition in KB cells, Type 1A Rhino; format: cell-based; details: VR >0.5 significant, <0.5 slight activity
Experimental: as §1, §2

Type 13 Rhino = test: CPE inhibition in KB cells, Type 13 Rhino; format: cell-based; details: VR >0.5 significant, <0.5 slight activity
Experimental: as §1, §2

Type 8 Rhino = test: CPE inhibition in KB cells, Type 8 Rhino; format: cell-based; details: VR >0.5 significant, <0.5 slight activity
Experimental: as §1, §2

Type 56 Rhino = test: CPE inhibition in KB cells, Type 56 Rhino; format: cell-based; details: VR >0.5 significant, <0.5 slight activity
Experimental: as §1, §2

Type 3 Parainfluenza = test: CPE inhibition in KB cells, Type 3 Parainfluenza; format: cell-based; details: VR >0.5 significant, <0.5 slight activity
Experimental: as §1, §2

Measles = Measles virus plaque inhibition (agar overlay); format: cell-based; details: Measles morbillivirus, 96 h, day 4; for inhibition at 20 µg/mL: 20 μg/ml; for inhibition at 100 µg/mL: 100 μg/ml; for inhibition at 500 µg/mL: 500 μg/ml
Excerpt: In experiments with measles virus, the above method was altered in that the infected cells were covered with an agar-serum-bicarbonate overlay containing the antiviral compounds so that viral plaques could be discerned. These plaques were strained with neutral red dye on day 4 and counted, with any reduction in plaque number resulting from exposure to the antiviral compound determined. The methodology for the experiment is as described by Wear et al (Exptl. and Molecular Pathol. 9:405-417, 1968).

influenza A2 virus = format: in vivo, Female Swiss Mice; details: for Average Lung Consolidation: Day 25, scale of 0-4; for effectiveness against influenza virus: summary in words
mice = details: for MST / Survivors Per Total / Average Lung Consolidation / HA Titer Per ml: Drug + MEM; for Average Lung Consolidation: Day 25, scale of 0-4; for HA Titer Per ml: lung homogenates Day 25
in vitro = details: human, kb cells
[1] = Compound 1, 250 mg/kg/day ip, Drug + Virus, schedule 1
[2] = Compound 1, 500 mg/kg/day ip, Drug + Virus, schedule 1
[3] = Compound 1, 1000 mg/kg/day ip, Drug + Virus, schedule 1
[4] = Compound 1, 250 mg/kg/day ip, schedule 1
[5] = Compound 1, 500 mg/kg/day ip, schedule 1
[6] = Compound 1, 1000 mg/kg/day ip, schedule 1
[7] = Compound 2, 75 mg/kg/day ip, Drug + Virus, schedule 1
[8] = Compound 2, 250 mg/kg/day ip, Drug + Virus, schedule 3
[9] = Compound 2, 500 mg/kg/day ip, Drug + Virus, schedule 3
[10] = Compound 2, 1000 mg/kg/day ip, Drug + Virus, schedule 2
[11] = Compound 2, 250 mg/kg/day ip, schedule 3
[12] = Compound 2, 500 mg/kg/day ip, schedule 3
[13] = Compound 2, 1000 mg/kg/day ip, schedule 2

NC(=O)c1nc[nH]n1 [Compound 1, 1,2,4-Triazole-3-carboxamide]
% Conversion (Nucleoside Phosphorylase; - enzyme): 0.8%
% Conversion (Nucleoside Phosphorylase; - ribose-1-P, + enzyme, 80μg): 1.1%
Virus Rating (Type 1 Herpes): 0.6-0.9
Virus Rating (Type 2 Herpes): 0.4
Virus Rating (Vaccinia): 0.8
Virus Rating (Type 1A Rhino): 0.4-0.5
Virus Rating (Type 13 Rhino): 0.3
Virus Rating (Type 8 Rhino): 0.2
Virus Rating (Type 56 Rhino): 0.3
Virus Rating (Type 3 Parainfluenza): 0.5-0.7
inhibition at 20 µg/mL (Measles): 34%
inhibition at 100 µg/mL (Measles): 97%
inhibition at 500 µg/mL (Measles): 99%
MST (influenza A2 virus; [1]): 17.5 days
Survivors Per Total (influenza A2 virus; Compound 1, 250 mg/kg/day ip, Drug + Virus, schedule 1 (P<0.05)): 8/10
Average Lung Consolidation (influenza A2 virus; [1]): 1.4
MST (influenza A2 virus; [2]): 12.0 days
Survivors Per Total (influenza A2 virus; Compound 1, 500 mg/kg/day ip, Drug + Virus, schedule 1 (P<0.1)): 7/10
Average Lung Consolidation (influenza A2 virus; [2]): 2.5
MST (influenza A2 virus; [3]): 15 days
Survivors Per Total (influenza A2 virus; Compound 1, 1000 mg/kg/day ip, Drug + Virus, schedule 1 (P<0.05)): 8/10
Average Lung Consolidation (influenza A2 virus; [3]): 2.0
HA Titer Per ml (influenza A2 virus; Compound 1, 1000 mg/kg/day ip, Drug + Virus, schedule 1, lung homogenates Day 25): 1.3
effectiveness against influenza virus (influenza A2 virus): particularly effective against influenza virus
MST (mice; [4]): > 21.0 days
Survivors Per Total (mice; [4]): 5/5
MST (mice; [5]): > 21.0 days
Survivors Per Total (mice; [5]): 5/5
MST (mice; [6]): > 21 days
Survivors Per Total (mice; [6]): 5/5
toxicity to mice (mice; concentrations as high as 1000 mg/kg/day, intraperitoneally twice daily for 9 days): nontoxic
MCC (in vitro): 32 to 1000 µg/mL

NC(=S)c1nc[nH]n1 [Compound 2, 1,2,4-Triazole-3-thiocarboxamide]
Virus Rating (Type 1 Herpes): 0.4-0.8
Virus Rating (Type 2 Herpes): 0.3
Virus Rating (Vaccinia): 0.5
Virus Rating (Type 1A Rhino): 0.2-0.4
Virus Rating (Type 13 Rhino): 0.4
Virus Rating (Type 8 Rhino): 0.3
Virus Rating (Type 56 Rhino): 0.4
Virus Rating (Type 3 Parainfluenza): 0.2-0.4
inhibition at 20 µg/mL (Measles): 5%
inhibition at 100 µg/mL (Measles): 98%
inhibition at 500 µg/mL (Measles): 100%
MST (influenza A2 virus; [7]): > 21.0 days
Survivors Per Total (influenza A2 virus; Compound 2, 75 mg/kg/day ip, Drug + Virus, schedule 1 (P<0.001)): 10/10
Average Lung Consolidation (influenza A2 virus; [7]): 1.0
MST (influenza A2 virus; [8]): 9.2 days
Survivors Per Total (influenza A2 virus; Compound 2, 250 mg/kg/day ip, Drug + Virus, schedule 3 (P<0.2)): 6/10
Average Lung Consolidation (influenza A2 virus; [8]): 3.6
MST (influenza A2 virus; [9]): 7.6 days
Survivors Per Total (influenza A2 virus; Compound 2, 500 mg/kg/day ip, Drug + Virus, schedule 3 (P>0.3)): 5/10
Average Lung Consolidation (influenza A2 virus; [9]): 2.2
MST (influenza A2 virus; [10]): 8.3 days
Survivors Per Total (influenza A2 virus; Compound 2, 1000 mg/kg/day ip, Drug + Virus, schedule 2 (P>0.3)): 3/10
Average Lung Consolidation (influenza A2 virus; [10]): 3.7
effectiveness against influenza virus (influenza A2 virus): particularly effective against influenza virus
MST (mice; [11]): > 21.0 days
Survivors Per Total (mice; [11]): 5/5
Average Lung Consolidation (mice; [11]): 0.5
HA Titer Per ml (mice; [11]): 0
MST (mice; [12]): 9.0 days
Survivors Per Total (mice; [12]): 4/5
Average Lung Consolidation (mice; [12]): 2.0
HA Titer Per ml (mice; [12]): 0
MST (mice; [13]): 4.2 days
Survivors Per Total (mice; [13]): 0/5
toxicity to mice (mice; concentrations as low as 250 mg/kg/day, intraperitoneally, same treatment regimen (twice daily for 9 days)): moderately toxic as evidenced by weight loss and death
MCC (in vitro): ≥ 1 µg/mL

NC(=O)c1ncn([C@@H]2O[C@H](CO)[C@@H](O)[C@H]2O)n1 [Compound 3, 1-β-D-Ribofuranosyl-1,2,4-triazole-3-carboxamide]
Virus Rating (Type 1 Herpes): 1.0-1.5
Virus Rating (Type 2 Herpes): 1.3
Virus Rating (Vaccinia): 0.9-1.0
Virus Rating (Type 1A Rhino): 0.6
Virus Rating (Type 13 Rhino): 0.5
Virus Rating (Type 8 Rhino): 0.8
Virus Rating (Type 56 Rhino): 0.9
Virus Rating (Type 3 Parainfluenza): 0.6-1.0
inhibition at 20 µg/mL (Measles): 30%
inhibition at 100 µg/mL (Measles): 94%
inhibition at 500 µg/mL (Measles): 100%
